Like-named read-outs stand apart in the source and are kept apart here.
Key:
[1] = test system: DU145 prostate cancer cells; assay: Cell growth inhibition, cell counting after 72 h; format: cell-based, human
From the text: (§1) Each dot is the mean±SD derived from 3 independent assays.
(§2) Irinotecan and topotecan are the only two analogs derived from direct modification of camptothecin (CPT) that are approved by the FDA for cancer treatment in clinical practice. […] In this regard, we obtain one DU145 parental prostate cancer cell line and two DU145-derived sub-lines with Top1 mutations (DU145-RC0.1, DU145-RC1).

[2] = test system: RC0.1 (DU145-RC0.1) cells; assay: Cell growth inhibition, DU145 sub-line with Top1 mutation; format: cell-based, human
From the text: as §1, §2

RC1 (DU145-RC1) cells [3] = assay: as above; format: cell-based, human
From the text: as §1, §2

[4] = test system: HCT116 colon cancer cells; assay: cells; format: cell-based, human; conditions: for RP: IC50 of topotecan divided by IC50 of the drug
Method: (§3) Cancer cell viability and growth are determined by MTT assay. […] MTT is used as a colorimetric substrate for measuring cell viability and growth. When cell growth is inhibited, there is an alteration of cellular redox activity, and thus rendering cells unable to reduce the MTT dye. Cells are seeded in 96 well plates overnight and then treated with or without a compound/drug in the presence or absence of an protein molecule inhibitor (e.g. ABCG2 inhibitor ko143) for 48-72 hours, MTT is added to a final concentration 0.5 mg/ml. Cells are continuously incubated in a 5% CO2 incubator at 37° C. for 4 h with MTT and then lysed with a cell lysis buffer (20% SDS, 50% N,N-dimethylformamide, pH 4.7), 100 μl per well, for 4 h in the incubator. Subsequently, cell absorbance in each well is measured at 570 nm with an Ultra Microplate Reader (Bio-Tek Instruments). Results are reported as the mean±SD from 3-5 independent assays at each point. […] After 72 hours, media is removed and cells are harvested using 0.5 ml of 0.25% Trypsin-EDTA. Cells are counted and viability is analyzed on a Vi-CELL XR Cell Viability Analyzer (Beckman Coulter).

HCT116-NS6 cells = assay: cells; format: cell-based, human; conditions: for RP: IC50 of topotecan divided by IC50 of the drug
Method: as §3

HCT116-C4 cells = assay: cells; format: cell-based, human; conditions: for RP: IC50 of topotecan divided by IC50 of the drug
Method: Cancer cell viability and growth are determined by MTT assay. […] MTT is used as a colorimetric substrate for measuring cell viability and growth. When cell growth is inhibited, there is an alteration of cellular redox activity, and thus rendering cells unable to reduce the MTT dye. Cells are seeded in 96 well plates overnight and then treated with or without a compound/drug in the presence or absence of an protein molecule inhibitor (e.g. ABCG2 inhibitor ko143) for 48-72 hours, MTT is added to a final concentration 0.5 mg/ml. Cells are continuously incubated in a 5% CO2 incubator at 37° C. for 4 h with MTT and then lysed with a cell lysis buffer (20% SDS, 50% N,N-dimethylformamide, pH 4.7), 100 μl per well, for 4 h in the incubator. Subsequently, cell absorbance in each well is measured at 570 nm with an Ultra Microplate Reader (Bio-Tek Instruments). Results are reported as the mean±SD from 3-5 independent assays at each point. Alternatively, for FIG. 16, FIG. 17 and FIG. 19, cells are plated at a density of 300,000 cells/well in 6-well plates; cells are allowed to attach on the plate overnight. […] After 72 hours, media is removed and cells are harvested using 0.5 ml of 0.25% Trypsin-EDTA. Cells are counted and viability is analyzed on a Vi-CELL XR Cell Viability Analyzer (Beckman Coulter).

HCT116-A2 cells = assay: cells; format: cell-based, human; conditions: for RP: IC50 of topotecan divided by IC50 of the drug
Method: as §3

HCT116-G7 cells = assay: cells; format: cell-based, human; conditions: for RP: IC50 of topotecan divided by IC50 of the drug
Method: as §3

HCT116-C8 cells = assay: cells; format: cell-based, human; conditions: for RP: IC50 of topotecan divided by IC50 of the drug
Method: as §3

ABCG2 in HCT116-A2 cells [5] = format: cell-based, human
Method: Cell numbers are then counted at each drug concentration used. […] Cell numbers at each dot is the mean±SD derived from 3 independent assays. Data are plotted graphically and EC50 values are calculated using GraphPad Prism 6.0.
ABCG2 positive HCT116-derived colon cancer cells (HCT116-A2) grown at sub-confluence are treated with a series of concentrations of topotecan in triplicate for 72 hours in the presence or absence of Ko143 at 1 μM concentrations as shown. Cell numbers are then counted at each topotecan concentration used. […] Cell numbers at each dot is the mean±SD derived from 3 independent assays. Data are plotted graphically and EC50 values and R-values are calculated using GraphPad Prism 6.0.
Clinically, development of resistance to irinotecan and topotecan occurs commonly during treatment, often involving the upregulation of ABCG2. By increasing the rate of drug export, ABCG2 decreases the amount of SN-38, irinotecan or topotecan that accumulates intracellularly, thereby protecting cancer cells from the cytotoxic effects of these chemotherapeutic drugs.

ABCG2 in HCT116-A2 cells [6] = assay: Growth inhibition after ABCG2 shRNA silencing; format: cell-based, human; conditions: 72 hours
Method: Actin is internal control. B and C. […] Cells at sub-confluence are infected with lentiviral particles containing nonsense shRNA (ns), or AGCG2-specific shRNA (sh1, sh2) to silence ABCG2 expression in the cells. […] Viability for each dose was determined using a ViCELL XR cell viability analyzer and normalized to that of DMSO control. Error bars=SEM, n=3 independent experiments. Data are plotted graphically and EC50 values are calculated using GraphPad Prism 6.0.

[7] = test system: DU145 prostate cancer cells; conditions: DU-145; adopted from Urasaki Y et al.; cited from earlier work
[8] = test system: RC0.1 (DU145-RC0.1) cells; conditions: adopted from Urasaki Y et al.; cited from earlier work
RC1 (DU145-RC1) cells [9] = conditions: adopted from Urasaki Y et al.; cited from earlier work
survivin = assay: Western blot for survivin expression in FaDu cells; format: cell-based, human; conditions: 24 hours
[10] = test system: human umbilical vein endothelial cells (HUVECS); assay: Cell growth and viability, MTT; format: cell-based; conditions: 72 hours
cancer cells = assay: Cell growth and viability, MTT; format: cell-based, human; conditions: 72 hours
Method: Actin is an internal control for equal protein loading. […] Subconfluent cancer cells as shown are treated with a series of concentrations of crolibulin as shown (0-100 μM) for 72 hours. Cell growth and viability are determined via MTT assay. Each curve is the mean±SD from 4 independent assays.
Crolibulin is an anticancer drug that targets endothelial cells of the cancer vasculature system. Therefore, crolibulin is considered as a vascular disrupt agent (VDA).

ABCG2 in HEK293 cells [11] = assay: Intracellular drug concentration by flow cytometry; format: cell-based, human
Method: Cells are then incubated for 3 h in 37 C and 5% CO2, with manual agitation every 30 min. After incubation, cells are pelleted and supernatant is removed. Cell pellets are washed twice with ice-cold PBS, and then suspended in 300 uL ice-cold PBS, and placed on ice until analysis. Cells are analyzed on a LSR II flow cytometer (BD Biosciences, San Jose Calif.) with a 355 nm laser and a 540 nm band-pass filter to detect emission. Median fluorescence intensity (MFI) of each drug+/−Ko143 is compared.

HCT-8 cells = assay: Colony formation after 2 h or 6 h drug treatment; format: cell-based, human
Method: Subconfluent SW620, HCT-8, and HCT-116 cells were lysed and analyzed for the expression of MDR1 and ABCG2 using western blots (WB). Actin is the internal control. […] Cell growth/viability was then analyzed by MTT assays. Each time point in the individual curve is the mean±SD from 3 to 5 independent assays. […] Drugs were then washed out and cells were allowed to grow in new medium without drugs for 2 weeks. Cell colonies were stained with crystal violet solution; images were digitally taken. Triplicate results are shown.
Cell growth is then measured and the data are plotted as percentage of growth inhibition (no drug treatment was set at 0%). […] C. […] Representative cancer cell images were taken with a digital camera under phase-contrast microscope.

in vivo = conditions: SCID, mouse, in vivo, ip
Method: Individual tumor curves derived from individual mice are shown. A. Mice with FaDu head-&-neck tumor xenografts were first treated with irinotecan at its maximum tolerated dose (MTD, 100 mg/kg, IP) weekly for 4-5 times (black arrow). […] B. Mice with FaDu tumor xenografts were first treated with topotecan at its MTD (4 mg/kg, IP) via daily×5 schedules for 4 cycles (each black arrow is one cycle). […] C. Mice with SW620 CRC xenografts were first treated with irinotecan at its MTD (IP, weekly×4, black arrow). […] D. Mice with SW620 xenograft tumors were first treated with topotecan at its MTD.

ABCG2 in HEK293 cells [12] = test system: ABCG2 in HEK293 cells
[13] = DU-145, IC50 of topotecan divided by IC50 of the drug

Structure (SMILES)	RP (relative potency) [2]	RP (relative potency) (RC1 (DU145-RC1) cells [3])	RP [4]	RP (HCT116-NS6 cells)	RP (HCT116-C4 cells)	RP (HCT116-A2 cells)	RP (HCT116-G7 cells)	RP (HCT116-C8 cells)	IC50 [7]	IC50 [8]	IC50 (RC1 (DU145-RC1) cells [9])	RP (relative potency) [1, 13]	further results
CCc1c2c(nc3ccc(O)cc13)-c1cc3c(c(=O)n1C2)COC(=O)[C@]3(O)CC [SN-38]	5.24	13.2	2.474	5.055	3.337	2.499	4.048	44.69	40 nM	11700 nM	4430 nM	–	RP (relative potency) [1]: 4.75; IC50 [4]: 0.192 nM; IC50 (HCT116-NS6 cells): 1.11 nM; IC50 (HCT116-C4 cells): 25.7 nM; IC50 (HCT116-A2 cells): 43.4 nM; IC50 (HCT116-G7 cells): 4.76 nM; IC50 (HCT116-C8 cells): 8.47 nM; effect of ABCG2 inhibitor Ko143 on potency (ABCG2 in HCT116-A2 cells [5]; HCT116-A2 cells, 72 hours, Ko143 1 μM): Ko143 restores potency to SN-38; effect of silencing of ABCG2 on cell growth inhibition (ABCG2 in HCT116-A2 cells [6]): significantly sensitizes SN-38 to inhibit cell growth
COc1cc([C@H]2C(C#N)=C(N)Oc3c2ccc(N)c3N)cc(Br)c1OC [crolibulin, reference compound]	–	–	–	–	–	–	–	–	–	–	–	–	survivin expression (survivin): strongly induce survivin expression; sensitivity of HUVEC cells [10]: sensitive to crolibulin inhibition; sensitivity of cancer cells (cancer cells): resistant to crolibulin inhibition
CC[C@@]1(O)C(=O)OCc2c1cc1n(c2=O)Cc2cc3ccccc3nc2-1 [CPT, camptothecin]	–	–	–	–	–	–	–	–	60 nM	63300 nM	21700 nM	3.17	RP (relative potency) ([2]; RC0.1, IC50 of topotecan divided by IC50 of the drug): 0.97; RP (relative potency) (RC1 (DU145-RC1) cells [3]; RC1, IC50 of topotecan divided by IC50 of the drug): 2.69
CC[C@@]1(O)C(=O)OCc2c1cc1n(c2=O)Cc2cc3c(CN(C)C)c(O)ccc3nc2-1 [Topotecan, topotecan]	1	1	1	1	1	1	1	1	190 nM	61200 nM	58300 nM	1	IC50 ([4]; Homo sapiens, HCT-116): 0.747 nM; IC50 (HCT116-NS6 cells; Homo sapiens): 5.64 nM; IC50 (HCT116-C4 cells; Homo sapiens): 85.8 nM; IC50 (HCT116-A2 cells; Homo sapiens): 108 nM; IC50 (HCT116-G7 cells; Homo sapiens): 19.3 nM; IC50 (HCT116-C8 cells; Homo sapiens): 379 nM; effect of ABCG2 inhibitor Ko143 on potency (ABCG2 in HCT116-A2 cells [5]): ABCG2 is also a topotecan resistance factor; effect of ABCG2 overexpression on intracellular concentration (ABCG2 in HEK293 cells [11]): decreases intracellular concentration; colony formation inhibition, 6 hours versus 2 hours of treatment (HCT-8 cells): significantly better colony formation inhibition; MTD (in vivo): 4 mg/kg; effect of ABCG2 overexpression on IC50 for inhibition of cell growth (ABCG2 in HEK293 cells [12]): significantly increases IC50

— patent publication US10344037B2, “Use of the FL-one hundred eighteen core chemical structure platform to generate FL-one hundred eighteen derivatives for treatment of human disease” (priority 2014, dated 2019)
